From the supplement of paper PMC11562712

Assay: first-order primary biodegradation rate constant k (sorption-corrected, fDis-corrected) (d-1); higher = faster biodegradation
Summary of the method: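 River water and sieved sediment (50 g wet solid L^–1) from segments in Germany, Switzerland, Spain and Greece were spiked with 129 compounds at 1 μg L^–1 each and shaken in the dark at river water temperature (20.5 ± 3.5 °C) for 10 days, in three replicates. After filtration, water-phase subsamples were analysed by Orbitrap tandem mass spectrometry following ultra-high-performance liquid chromatography. First-order k was taken from log peak-area regression, corrected using azide-sterilised sorption controls and divided by the dissolved fraction, excluding invalid fits.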

[1] = river segment: Germany (DE) H_Contam, incubation temperature 24 °C
[2] = river segment: Germany (DE) T_Contam, incubation temperature 24 °C
[3] = river segment: Germany (DE) T_Pris, incubation temperature 24 °C
[4] = river segment: Greece (EL) A_Contam, incubation temperature 19 °C
[5] = river segment: Greece (EL) G_Pris, incubation temperature 19 °C
[6] = river segment: Greece (EL) L_Contam, incubation temperature 19 °C
[7] = river segment: Spain (ES) B_Contam, incubation temperature 24 °C
[8] = river segment: Spain (ES) C_Contam, incubation temperature 24 °C
[9] = river segment: Spain (ES) F_Pris_Salt, incubation temperature 24 °C
[10] = river segment: Spain (ES) L_Contam, incubation temperature 24 °C
[11] = river segment: Switzerland (CH) C_Contam, incubation temperature 17 °C
[12] = river segment: Switzerland (CH) R_Contam, incubation temperature 17 °C
[13] = river segment: Switzerland (CH) U_Contam, incubation temperature 17 °C
[14] = river segment: Switzerland (CH) U_Pris, incubation temperature 17 °C
[15] = river segment: Greece (EL) G_Contam, incubation temperature 19 °C

Row | SMILES | first-order primary biodegradation rate constant k [1] | first-order primary biodegradation rate constant k [2] | first-order primary biodegradation rate constant k [3] | first-order primary biodegradation rate constant k [4] | first-order primary biodegradation rate constant k [5] | first-order primary biodegradation rate constant k [6] | first-order primary biodegradation rate constant k [7] | first-order primary biodegradation rate constant k [8] | first-order primary biodegradation rate constant k [9] | first-order primary biodegradation rate constant k [10] | first-order primary biodegradation rate constant k [11] | first-order primary biodegradation rate constant k [12] | first-order primary biodegradation rate constant k [13] | first-order primary biodegradation rate constant k [14] | first-order primary biodegradation rate constant k [15]
1 | CCCCc1nc(Cl)c(CO)n1Cc1ccc(-c2ccccc2-c2nnn[nH]2)cc1 [Losartan] | 0.417 | 0.319 | 0.123 | 0.323 | 0.781 | 0.343 | 0.157 | 0.105 | 0.0258 | 0.299 | 0.06 | 0.149 | 0.294 | 0.358 | –
2 | Cc1cc(Cl)ccc1OC(C)C(=O)O (configuration not stated) [Mecoprop] | 0.0948 | 0.267 | 0.0247 | 0.155 | 0.0919 | 0.0787 | 0.0613 | 0.159 | 0.0616 | 0.0286 | 0.0712 | 0.201 | 0.163 | 0.417 | 0.021
3 | Cc1cccc(Nc2ccccc2C(=O)O)c1C [Mefenamic acid] | 0.0696 | 0.497 | 0.23 | 0.235 | – | – | – | 0.0725 | 0.804 | – | 0.174 | – | 1.41 | 1.7 | –
4 | CN(C)C(=N)NC(=N)N [Metformin] | 0.0281 | 0.0415 | 0.0208 | – | – | – | – | – | – | – | – | – | – | – | –
5 | CN(Cc1cnc2nc(N)nc(N)c2n1)c1ccc(C(=O)N[C@@H](CCC(=O)O)C(=O)O)cc1 [Methotrexate] | 3.99 | – | 8.59 | – | – | 6.29 | – | – | 6.23 | – | – | 18 | – | – | –
6 | COC(=O)c1ccc(O)cc1 [Methylparaben] | 0.119 | 0.0815 | 0.1 | 0.106 | – | 0.211 | – | 0.151 | 4.7 | – | 0.175 | – | – | 0.0832 | 0.0602
7 | CCc1cccc(C)c1N(C(=O)CCl)C(C)COC (configuration not stated) [Metolachlor] | – | 0.0409 | – | – | – | – | 0.0124 | 0.0203 | – | 0.167 | 0.0161 | – | 0.0398 | 0.0285 | –
8 | COCCc1ccc(OCC(O)CNC(C)C)cc1 (configuration not stated) [Metoprolol] | 0.297 | 0.215 | 0.165 | 0.291 | 0.258 | 0.42 | 0.253 | 0.218 | 0.241 | 0.252 | 0.177 | 0.263 | 0.332 | 0.606 | 0.171
9 | COc1ccc(NC(=O)N(C)C)cc1Cl [Metoxuron] | 0.0437 | 0.106 | 0.0159 | 0.209 | 0.333 | 0.0742 | – | – | – | 0.0285 | – | – | 0.022 | – | 0.0278
10 | COc1ccc2cc([C@H](C)C(=O)O)ccc2c1 [Naproxen] | – | 0.145 | 0.00509 | 0.115 | 0.102 | 0.0444 | 0.76 | 0.248 | 0.076 | 0.413 | – | 0.141 | 0.0814 | – | 0.0195
11 | CN(C)C(=O)Oc1cccc([N+](C)(C)C)c1 [Neostigmine] | – | 0.101 | – | – | 0.0309 | – | – | – | – | – | – | – | 0.486 | – | –
12 | NC(=O)c1cccnc1 [Nicotinamide] | – | – | – | 0.821 | – | – | – | – | – | – | – | 0.0625 | – | – | –
13 | CO[C@@H]1[C@@H](OC(N)=O)[C@@H](O)[C@H](Oc2ccc3c(O)c(NC(=O)c4ccc(O)c(CC=C(C)C)c4)c(=O)oc3c2C)OC1(C)C [Novobiocin] | – | – | 0.212 | – | – | 7.88 | – | – | 0.145 | – | – | – | – | – | 0.108
14 | O=C1Nc2ccc(Cl)cc2C(c2ccccc2)=NC1O (configuration not stated) [Oxazepam] | 0.0405 | 0.0412 | – | – | – | 0.027 | – | 0.124 | – | 0.0149 | – | – | 0.0242 | 0.00813 | –
15 | C=CCOc1ccccc1OCC(O)CNC(C)C (configuration not stated) [Oxprenolol] | 0.0433 | 1.9 | 0.0369 | – | 0.111 | 0.756 | 0.107 | – | 0.426 | 0.142 | 0.0127 | 0.0926 | 0.0534 | 0.0473 | 0.0189
16 | CC(=O)Nc1ccc(O)cc1 [Paracetamol] | 2.34 | 3.16 | – | 3.21 | 0.888 | – | 1.24 | 1.28 | – | 2.82 | – | 3.87 | 2.14 | – | 3.16
17 | C#CCN(C)Cc1ccccc1 [Pargyline] | 0.16 | 0.425 | 0.199 | 0.519 | – | 0.513 | 0.0362 | 0.113 | 0.179 | – | 0.22 | 0.4 | 0.596 | 0.768 | 0.773
18 | CC(C)N(C(=O)CCl)c1ccccc1 [Propachlor] | 0.302 | 0.812 | 0.308 | 0.575 | – | 0.985 | 1.07 | 0.218 | 0.212 | 0.809 | 0.33 | 0.429 | 0.649 | 0.552 | 0.271
19 | CC(C)NCC(O)COc1cccc2ccccc12 (configuration not stated) [Propranolol] | 0.231 | – | 0.118 | – | 0.0227 | – | 0.309 | 0.539 | 0.0162 | 0.303 | 0.0688 | 0.251 | 0.246 | 0.29 | 0.0886
20 | CCCOC(=O)c1ccc(O)cc1 [Propylparaben] | 2.67 | – | 1.42 | – | – | – | – | 2.24 | 0.275 | 4.24 | – | – | – | – | –
